Test system: 782815-120-R-J1-PDC complex spheroid viability
Assay: Anticancer human tumor 782815-120-R-J1-PDC patient-derived colon adenocarcinoma cell line growth inhibition [RAS]
Details: for IC50: curve of first compound; for viability, T/C: stronger effect = lower value; active = viability on the fitted dose curve at most 10% of control; inactive = the rest
How it was run: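 Tumour cells grown as complex spheroids with HUVEC endothelial cells and mesenchymal stem cells, treated with RAS pathway inhibitor combinations. Each agent spans half-log steps from near clinical Cmax, or 10 microM where Cmax is unknown.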

[1] = second compound 0.000949 µM, first compound 0.0316 µM
[2] = second compound 0.000949 µM, first compound 0.1 µM
[3] = second compound 0.000949 µM, first compound 0.316 µM
[4] = second compound 0.000949 µM, first compound 1 µM
[5] = second compound 0.000949 µM, first compound 3.16 µM
[6] = second compound 0.000949 µM, first compound 10 µM
[7] = second compound 0.003 µM, first compound 0.0316 µM
[8] = second compound 0.003 µM, first compound 0.1 µM
[9] = second compound 0.003 µM, first compound 0.316 µM
[10] = second compound 0.003 µM, first compound 1 µM
[11] = second compound 0.003 µM, first compound 3.16 µM
[12] = second compound 0.003 µM, first compound 10 µM
[13] = second compound 0.00949 µM, first compound 0.0316 µM
[14] = second compound 0.00949 µM, first compound 0.1 µM
[15] = second compound 0.00949 µM, first compound 0.316 µM
[16] = second compound 0.00949 µM, first compound 1 µM
[17] = second compound 0.00949 µM, first compound 3.16 µM
[18] = second compound 0.00949 µM, first compound 10 µM
[19] = second compound 0.03 µM, first compound 0.0316 µM
[20] = second compound 0.03 µM, first compound 0.1 µM
[21] = second compound 0.03 µM, first compound 0.316 µM
[22] = second compound 0.03 µM, first compound 1 µM
[23] = second compound 0.03 µM, first compound 3.16 µM
[24] = second compound 0.03 µM, first compound 10 µM
[25] = second compound 0.0949 µM, first compound 0.0316 µM
[26] = second compound 0.0949 µM, first compound 0.1 µM
[27] = second compound 0.0949 µM, first compound 0.316 µM
[28] = second compound 0.0949 µM, first compound 1 µM
[29] = second compound 0.0949 µM, first compound 3.16 µM
[30] = second compound 0.0949 µM, first compound 10 µM
[31] = second compound 0.3 µM, first compound 0.0316 µM
[32] = second compound 0.3 µM, first compound 0.1 µM
[33] = second compound 0.3 µM, first compound 0.316 µM
[34] = second compound 0.3 µM, first compound 1 µM
[35] = second compound 0.3 µM, first compound 3.16 µM
[36] = second compound 0.3 µM, first compound 10 µM
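Note: spheroids exposed to compounds for 7 days before reading.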
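Throughout, for viability, T/C: 100% = DMSO vehicle control viability.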

CC(Nc1ccc2c(c1)OCCn1cc(N3C(=O)OCC3C(F)F)nc1-2)C(N)=O (centres undefined) + CCn1c(-c2cccnc2C(C)OC)c2c3cc(ccc31)N1CCOC(CC(NC(=O)C(C(C)C)N(C)C(=O)C3(F)CCN(C(=O)C#CC(C)(C)N(C)C)CC3)C(=O)N3CCCC(N3)C(=O)OCC(C)(C)C2)C1
> 10 µM: IC50 (second compound 0.000949 µM) | IC50 (second compound 0.003 µM) | IC50 (second compound 0.00949 µM) | IC50 (second compound 0.03 µM) | IC50 (second compound 0.0949 µM) | IC50 (second compound 0.3 µM)
inactive: viability, T/C [1] 93.3% | viability, T/C [2] 93.9% | viability, T/C [3] 82.2% | viability, T/C [4] 95.2% | viability, T/C [5] 99.2% | viability, T/C [6] 81.4% | viability, T/C [7] 93.6% | viability, T/C [8] 94.5% | viability, T/C [9] 93% | viability, T/C [10] 90.8% | viability, T/C [11] 93.5% | viability, T/C [12] 97.5% | viability, T/C [13] 93.4% | viability, T/C [14] 101% | viability, T/C [15] 91.1% | viability, T/C [16] 95.4% | viability, T/C [17] 93.8% | viability, T/C [18] 90.8% | viability, T/C [19] 90.7% | viability, T/C [20] 97% | viability, T/C [21] 90.4% | viability, T/C [22] 89.9% | viability, T/C [23] 102% | viability, T/C [24] 93.2% | viability, T/C [25] 85.9% | viability, T/C [26] 95.3% | viability, T/C [27] 81% | viability, T/C [28] 98.9% | viability, T/C [29] 106% | viability, T/C [30] 94.8% | viability, T/C [31] 95.1% | viability, T/C [32] 92% | viability, T/C [33] 90% | viability, T/C [34] 82.8% | viability, T/C [35] 94.6% | viability, T/C [36] 87.3%

C[C@@H](NC(=O)c1ncnc(N)c1Cl)c1ncc(C(=O)Nc2cc(C(F)(F)F)c(Cl)cn2)s1 + CCn1c(-c2cccnc2C(C)OC)c2c3cc(ccc31)N1CCOC(CC(NC(=O)C(C(C)C)N(C)C(=O)C3(F)CCN(C(=O)C#CC(C)(C)N(C)C)CC3)C(=O)N3CCCC(N3)C(=O)OCC(C)(C)C2)C1
inactive: viability, T/C [1] 106% | viability, T/C [2] 103% | viability, T/C [3] 105% | viability, T/C [4] 79.2% | viability, T/C [5] 56.9% | viability, T/C [6] 56.3% | viability, T/C [7] 107% | viability, T/C [8] 100% | viability, T/C [9] 103% | viability, T/C [10] 65.6% | viability, T/C [11] 59.6% | viability, T/C [12] 51.9% | viability, T/C [13] 104% | viability, T/C [14] 108% | viability, T/C [15] 91.2% | viability, T/C [16] 83.1% | viability, T/C [17] 61.2% | viability, T/C [18] 55% | viability, T/C [19] 103% | viability, T/C [20] 110% | viability, T/C [21] 93.7% | viability, T/C [22] 79.2% | viability, T/C [23] 72.4% | viability, T/C [24] 53.3% | viability, T/C [25] 96.6% | viability, T/C [26] 101% | viability, T/C [27] 93.4% | viability, T/C [28] 78.4% | viability, T/C [29] 61.1% | viability, T/C [30] 49.4% | viability, T/C [31] 89.3% | viability, T/C [32] 95% | viability, T/C [33] 96.4% | viability, T/C [34] 84% | viability, T/C [35] 69.8% | viability, T/C [36] 52.5%
> 10 µM: IC50 (second compound 0.000949 µM) | IC50 (second compound 0.003 µM) | IC50 (second compound 0.00949 µM) | IC50 (second compound 0.03 µM) | IC50 (second compound 0.3 µM)
9.85 µM: IC50 (second compound 0.0949 µM)
